Like-named read-outs stand apart in the source and are kept apart here.
Tested on: monocistronic NK5.1 HCV replicon in Huh7 cells
Experiment: HCV replicon assay, monocistronic replicon cell line
Type: cell-based, hepatitis C virus
Details: Hepatitis C virus, read-out: Mono EC50 Median
Summary of the method: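 EC50 derives from the HCV RNA/GAPDH RNA ratio by one-step TaqMan RT-PCR, relative to DMSO-only wells. Compounds (six half-log concentrations, 0.6% DMSO) were incubated 3 days at 37 °C with NK5.1 monocistronic replicon Huh7 cells plated a day earlier.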

[1] = Huh-7, monocistronic NK5.1 HCV replicon in Huh7 cells, median value
[2] = Huh-7, 72 h, table T3 (compounds 471-640), monocistronic replicon in Huh7 cells, 3 days incubation, HCV RNA/GAPDH RNA by TaqMan RT-PCR

| SMILES | EC50 [1] [µM] | EC50 [2] [µM] |
| --- | --- | --- |
| Cc1cccc(-c2n[nH]c(-c3c(F)cccc3F)n2)n1 [Compound 468, 2-[5-(2,6-Difluoro-phenyl)-1H-[1,2,4]triazol-3-yl]-6-methyl-pyridine] | > 32 | – |
| Cc1cccc(-c2n[nH]c(-c3c(F)cccc3Cl)n2)n1 [Compound 469, 2-[5-(2-Fluoro-6-chloro-phenyl)-1H-[1,2,4]triazol-3-yl]-6-methyl-pyridine] | > 32 | – |
| Fc1ccccc1-c1nc(-c2nccc3ccccc23)n[nH]1 [Compound 470] | 7.2 | – |
| Clc1ccccc1-c1nc(-c2nccc3ccccc23)n[nH]1 [Compound 471] | – | 6.1 |
| Clc1ccccc1-c1nc(-c2ccccn2)n[nH]1 [Compound 472, 2-[5-(2-Chloro-phenyl)-1H-[l,2,4]triazol-3-yl]-pyridine] | – | > 32 |
| FC(F)(F)c1ccncc1-c1n[nH]c(-c2ccccc2Br)n1 [Compound 473, 3-[5-(2-Bromo-phenyl)-1H-[1,2,4]triazol-3-yl]-4-trifluoromethyl-pyridine] | – | > 32 |
| FC(F)(F)c1ccncc1-c1n[nH]c(-c2cccc(Br)c2)n1 [Compound 474, 3-[5-(3-Bromo-phenyl)-1H-[1,2,4]triazol-3-yl]-4-trifluoromethyl-pyridine] | – | > 32 |
| Fc1ccccc1-c1nc(-c2cnccc2C(F)(F)F)n[nH]1 [Compound 475, 3-[5-(2-Fluoro-phenyl)-1H-[1,2,4]triazol-3-yl]-4-trifluoromethyl-pyridine] | – | > 32 |
| FC(F)(F)c1ccncc1-c1n[nH]c(-c2ccccc2Cl)n1 [Compound 476, 3-[5-(2-Chloro-phenyl)-1H-[1,2,4]triazol-3-yl]-4-trifluoromethyl-pyridine] | – | > 32 |
| FC(F)(F)c1ccncc1-c1n[nH]c(-c2c(Cl)cccc2Cl)n1 [Compound 477, 3-[5-(2,6-Dichloro-phenyl)-1H-[1,2,4]triazol-3-yl]-4-trifluoromethyl-pyridine] | – | > 32 |
| Fc1cccc(F)c1-c1nc(-c2cnccc2C(F)(F)F)n[nH]1 [Compound 478, 3-[5-(2,6-Difluoro-phenyl)-1H-[1,2,4]triazol-3-yl]-4-trifluoromethyl-pyridine] | – | > 32 |
| Fc1cccc(Cl)c1-c1nc(-c2cnccc2C(F)(F)F)n[nH]1 [Compound 479, 3-[5-(2-Fluoro-6-chloro-phenyl)-1H-[1,2,4]triazol-3-yl]-4-trifluoromethyl-pyridine] | – | > 32 |
| O=[N+]([O-])c1cccc(-c2nc(-c3cnccc3C(F)(F)F)n[nH]2)c1 [Compound 480, 3-[5-(3-Nitro-phenyl)-1H-[1,2,4]triazol-3-yl]-4-trifluoromethyl-pyridine] | – | > 32 |
| COc1ccc(F)c(-c2nc(-c3cnccc3C(F)(F)F)n[nH]2)c1 [Compound 481, 3-[5-(2-Fluoro-5-methoxy-phenyl)-1H-[1,2,4]triazol-3-yl]-4-trifluoromethyl-pyridine] | – | > 32 |
| Oc1ccc2ccccc2c1-c1nc(-c2ccccn2)n[nH]1 [Compound 482, 1-(5-Pyridin-2-yl-2H-[1,2,4]triazol-3-yl)-naphthalen-2-ol] | – | > 19 |
| Brc1cccnc1-c1n[nH]c(-c2cccc3ccccc23)n1 [Compound 483, 3-Bromo-2-(5-naphthalen-1-yl-1H-[1,2,4]triazol-3-yl)-pyridine] | – | > 32 |
| CC(C)(C)c1ccc(O)c(-c2nc(-c3ncccc3Br)n[nH]2)c1 [Compound 484, 2-[5-(3-Bromo-pyridin-2-yl)-2H-[1,2,4]triazol-3-yl]-4-tert-butyl-phenol] | – | 7.2 |
| O=[N+]([O-])c1ccc(O)c(-c2nc(-c3ncccc3Br)n[nH]2)c1 [Compound 485, 2-[5-(3-Bromo-pyridin-2-yl)-2H-[1,2,4]triazol-3-yl]-4-Nitro-phenol] | – | > 19 |
| Oc1ccc(F)cc1-c1nc(-c2ncccc2Br)n[nH]1 [Compound 486, 2-[5-(3-Bromo-pyridin-2-yl)-2H-[1,2,4]triazol-3-yl]-4-Fluoro-phenol] | – | 7.4 |
| COc1ccc(O)c(-c2nc(-c3ncccc3Br)n[nH]2)c1 [Compound 487, 2-[5-(3-Bromo-pyridin-2-yl)-2H-[1,2,4]triazol-3-yl]-4-Methoxy-phenol] | – | > 32 |
| Oc1ccc(Cl)cc1-c1nc(-c2ncccc2Br)n[nH]1 [Compound 488, 2-[5-(3-Bromo-pyridin-2-yl)-2H-[1,2,4]triazol-3-yl]-4-Chloro-phenol] | – | 2.7 |
| CCOc1cccc(-c2nc(-c3ncccc3Br)n[nH]2)c1O [Compound 489, 2-[5-(3-Bromo-pyridin-2-yl)-2H-[1,2,4]triazol-3-yl]-6-Ethoxy-phenol] | – | 22 |
| Oc1cc(OCc2ccccc2)ccc1-c1nc(-c2ncccc2Br)n[nH]1 [Compound 490, 2-[5-(3-Bromo-pyridin-2-yl)-2H-[1,2,4]triazol-3-yl]-5-Benzyloxy-phenol] | – | 7 |

| SMILES | EC50 [1] [µM] | EC50 [2] [µM] |
| --- | --- | --- |
| Fc1cc(-c2nc(-c3ncccc3Br)n[nH]2)ccc1-c1ccccc1 [Compound 491, 3-Bromo-2-[5-(2-Fluoro-biphenyl-4-yl)-1H-[1,2,4]triazol-3-yl]-pyridine] | – | 2.3 |
| Oc1ccc(Br)cc1-c1nc(-c2ncccc2Br)n[nH]1 [Compound 492, 2-[5-(3-Bromo-pyridin-2-yl)-2H-[1,2,4]triazol-3-yl]-4-Bromo-phenol] | – | 5.4 |
| Cc1ccc(O)c(-c2nc(-c3ncccc3Br)n[nH]2)c1 [Compound 493, 2-[5-(3-Bromo-pyridin-2-yl)-2H-[1,2,4]triazol-3-yl]-4-Methyl-phenol] | – | 16 |
| COc1ccc(-c2nc(-c3ncccc3Br)n[nH]2)c(O)c1 [Compound 494, 2-[5-(3-Bromo-pyridin-2-yl)-2H-[1,2,4]triazol-3-yl]-5-Methoxy-phenol] | – | > 32 |
| Oc1ccccc1-c1nc(-c2ncccc2Br)n[nH]1 [Compound 495, 2-[5-(3-Bromo-pyridin-2-yl)-2H-[1,2,4]triazol-3-yl]-phenol] | – | 15 |
| COc1cccc(-c2nc(-c3ncccc3Br)n[nH]2)c1O [Compound 496, 2-[5-(3-Bromo-pyridin-2-yl)-2H-[1,2,4]triazol-3-yl]-6-Methoxy-phenol] | – | > 32 |
| O=[N+]([O-])c1cccc(-c2nc(-c3ncccc3Br)n[nH]2)c1 [Compound 497, 3-Bromo-2-[5-(3-nitro-phenyl)-1H-[1,2,4]triazol-3-yl]-pyridine] | – | > 32 |
| CCN(CC)c1ccc(-c2nc(-c3ncccc3Br)n[nH]2)c(O)c1 [Compound 498, 2-[5-(3-Bromo-pyridin-2-yl)-2H-[1,2,4]triazol-3-yl]-5-Diethylamino-phenol] | – | 5.8 |
| Oc1ccc(O)c(-c2nc(-c3ncccc3Br)n[nH]2)c1 [Compound 499, 2-[5-(3-Bromo-pyridin-2-yl)-2H-[1,2,4]triazol-3-yl]-4-Hydroxy-phenol] | – | 6.2 |
| COc1cccc(-c2nc(-c3ncccc3Br)n[nH]2)c1 [Compound 500, 3-Bromo 2-[5-(3-Methoxy-phenyl)-1H-[1,2,4]triazol-3-yl]-pyridine] | – | > 32 |
| COc1ccc(F)c(-c2nc(-c3ncccc3Br)n[nH]2)c1 [Compound 501, 3-Bromo-2-[5-(2-Fluoro-5-methoxy-phenyl)-1H-[1,2,4]triazol-3-yl]-pyridine] | – | > 32 |
| CC(C)c1ccc(-c2nc(-c3ncccc3Br)n[nH]2)cc1 [Compound 502, 3-Bromo-2-[5-(4-isopropyl-phenyl)-1H-[1,2,4]triazol-3-yl]-pyridine] | – | 12 |
| Oc1ccc2ccccc2c1-c1nc(-c2ncccc2Br)n[nH]1 [Compound 503, 1-(5-(3-Bromo-pyridin-2-yl)-2H-[1,2,4]triazol-3-yl)-naphthalen-2-ol] | – | 6.9 |
| Cc1cccnc1-c1n[nH]c(-c2ccccc2Br)n1 [Compound 504, 2-[5-(2-Bromo-phenyl)-1H-[1,2,4]triazol-3-yl]-3-mehtyl-pyridine] | – | 7.3 |
| Cc1cccnc1-c1n[nH]c(-c2cccc(Br)c2)n1 [Compound 505, 2-[5-(3-Bromo-phenyl)-1H-[1,2,4]triazol-3-yl]-3-methyl-pyridine] | – | 4 |
| FC(F)(F)c1ccc(-c2n[nH]c(-c3cccc4ccccc34)n2)nc1 [Compound 506, 2-(5-Naphthalen-1-yl-1H-[1,2,4]triazol-3-yl)-5-trifluoromethyl-pyridine] | – | > 19 |
| CC(C)(C)c1ccc(O)c(-c2nc(-c3ccc(C(F)(F)F)cn3)n[nH]2)c1 [Compound 507, 4-tert-Butyl-2-[5-(5-trifluoromethyl-pyridin-2-yl)-2H-[1,2,4]triazol-3-yl]-phenol] | – | > 19 |
| O=[N+]([O-])c1ccc(O)c(-c2nc(-c3ccc(C(F)(F)F)cn3)n[nH]2)c1 [Compound 508, 4-Nitro-2-[5-(5-trifluoromethyl-pyridin-2-yl)-2H-[1,2,4]triazol-3-yl]-phenol] | – | > 19 |
| Oc1ccc(F)cc1-c1nc(-c2ccc(C(F)(F)F)cn2)n[nH]1 [Compound 509, 4-Fluoro-2-[5-(5-trifluoromethyl-pyridin-2-yl)-2H-[1,2,4]triazol-3-yl]-phenol] | – | > 19 |
| COc1ccc(O)c(-c2nc(-c3ccc(C(F)(F)F)cn3)n[nH]2)c1 [Compound 510, 4-Methoxy-2-[5-(5-trifluoromethyl-pyridin-2-yl)-2H-[1,2,4]triazol-3-yl]-phenol] | – | > 19 |
| Oc1ccc(Cl)cc1-c1nc(-c2ccc(C(F)(F)F)cn2)n[nH]1 [Compound 511, 4-Chloro-2-[5-(5-trifluoromethyl-pyridin-2-yl)-2H-[1,2,4]triazol-3-yl]-phenol] | – | > 19 |
| CCOc1cccc(-c2nc(-c3ccc(C(F)(F)F)cn3)n[nH]2)c1O [Compound 512, 6-Ethoxy-2-[5-(5-trifluoromethyl-pyridin-2-yl)-2H-[1,2,4]triazol-3-yl]-phenol] | – | > 19 |
| Oc1cc(OCc2ccccc2)ccc1-c1nc(-c2ccc(C(F)(F)F)cn2)n[nH]1 [Compound 513, 5-Benzyloxy-2-[5-(5-trifluoromethyl-pyridin-2-yl)-2H-[1,2,4]triazol-3-yl]-phenol] | – | > 19 |

From patent publication US20050075375A1 (priority 2003, published 2005)
